Earlier results on 63 molecules are cited in the CATMoS acute toxicity set (Mansouri et al. 2021).

This data set is described as follows: rat acute oral toxicity. The following applies: in vivo.
On to `CC(=O)OC12CCC(C)=CCC13CCC2C(C)(C=CC=C(C)C(=O)O)OC3=O` (stereo not drawn), for which the LD50 is 219 mg/kg.
Take `O=C(Nc1ccc(Nc2ccc(NC(=O)c3ccccc3)c3c2C(=O)c2ccccc2C3=O)c2c1C(=O)c1ccccc1C2=O)c1ccccc1`: the median lethal dose (LD50) is 19300 mg/kg.
`C=C(C)C(=O)OCCO`: the LD50 was 5620 mg/kg.
Turning to `OCCN(CCO)c1nc(-c2ccccc2)c(-c2ccccc2)o1`, the LD50 was 11400 mg/kg.
Turning to `CN(C)CC[C@@H](c1ccc(Br)cc1)c1ccccn1`, the LD50 is 191 mg/kg.
As to `CC1=C(CC(=O)O)c2cc(F)ccc2/C1=C\c1ccc(S(C)=O)cc1` (stereo not drawn), the LD50 was 264 mg/kg.
On to `Cc1ccccc1NC(=S)NN`, for which the LD50 is 200 mg/kg.
As to `CCCCNC(=S)N(CCCC)CCCC`, the LD50 is 3000 mg/kg.
Consider `CC(C)C(=O)Nc1ccc([N+](=O)[O-])c(C(F)(F)F)c1`, for which the LD50 is 787 mg/kg.
For the molecule `C#CCN(C)C1CCc2ccccc21` (stereo not drawn), the median lethal dose (LD50) is 250 mg/kg.
As to `O=C(O)c1cc(O)c(O)c(OC(=O)c2cc(O)c(O)c(O)c2)c1`, the LD50 is 2260 mg/kg.
On to `CC(C)(C)C(O)C(=Cc1ccc(Cl)cc1Cl)n1cncn1` (stereo not drawn), for which the LD50 is 474 mg/kg.
`CC(=Cc1ccccc1)CC(=O)N1CCOCC1`: the LD50 was 1000 mg/kg.
With `CCN1CCCC1CNC(=O)c1cc(S(=O)(=O)CC)ccc1OC` (stereo not drawn), the LD50 is 2100 mg/kg.
Turning to `COc1cc(C)nc(-n2nc(C)cc2OC)n1`, the median lethal dose (LD50) is 445 mg/kg.
With `COc1ccc([N+](=O)[O-])cc1CNCCCl`, the LD50 is 28 mg/kg.
As to `C[N+]1(CC2COC(c3ccccc3)(c3ccccc3)O2)CCCCC1` (stereo not drawn), the LD50 was 1820 mg/kg.
Regarding `CCCCCC(=O)NO`, the 50% lethal dose (LD50) is 3200 mg/kg.
`BrC12CC3CC(CC(C3)C1)C2`: the LD50 is 8470 mg/kg.
For the molecule `Nc1c(Cl)c(Cl)c2[nH]c(C(F)(F)F)nc2c1Cl`, the LD50 is 23 mg/kg.
As for `O=C(NN=C1SCCS1)c1ccccc1`, the LD50 is 72.8 mg/kg.
On to `CN(Cc1ccccc1)N=O`, for which the LD50 was 18 mg/kg.
With `O=C(O)Cc1ccc(-c2ccccc2F)cc1`, the LD50 was 638 mg/kg.
Consider `CCCC(=O)OC(Cl)C(Cl)(Cl)Cl` (stereo not drawn), for which the LD50 is 1480 mg/kg.
With `CC(C)OC(C)C`, the LD50 was 8470 mg/kg.
For the molecule `O=C1C(O)=C(CC=C(Cl)Cl)C(=O)c2ccccc21`, the LD50 was 281 mg/kg.
On to `CCN(CC)CC#CC(C)(C)OC(=O)C(O)(c1ccccc1)C1CCCCC1` (stereo not drawn), for which the 50% lethal dose (LD50) was 735 mg/kg.
For the molecule `Clc1cn[nH]c1`, the LD50 is 527 mg/kg.
On to `FC(F)(F)c1ccc2nc(C(F)(F)F)[nH]c2c1`, for which the LD50 was 9.02 mg/kg.
Turning to `Oc1ccc(-c2ccccc2)cc1CN1CCCCC1`, the median lethal dose (LD50) was 30 mg/kg.
Consider `NC(N)=NCC1CCCCCCN1` (stereo not drawn), for which the LD50 was 3550 mg/kg.
Consider `C(=N\C(/N=C/c1ccco1)c1ccco1)/c1ccco1`, for which the LD50 is 400 mg/kg.
For `O=[N+]([O-])c1nccn1CC(O)CO` (stereo not drawn), the LD50 is 5080 mg/kg.
On to `CC(C)(C)C(=O)COc1ccc(Cl)cc1`, for which the LD50 is 4650 mg/kg.
With `COc1ccc(N)cc1Cl`, the LD50 was 550 mg/kg.
For the molecule `C[Si]1(C)N[Si](C)(C)N[Si](C)(C)N1`, the LD50 is 500 mg/kg.
Take `Fc1cc2[nH]c(C(F)(F)F)nc2cc1Cl`: the LD50 was 8.66 mg/kg.
Consider `CNS(=O)(=O)OCC(=O)N1CCCCCC1`, for which the LD50 was 2040 mg/kg.
`CC(C)(C)c1ccc(C(=O)O)cc1`: the LD50 was 473 mg/kg.
Turning to `CC(=O)Nc1cc(Cl)ccc1Cl`, the median lethal dose (LD50) was 4100 mg/kg.
In the case of `CCNc1nc(NC(C)C)nc(OC)n1`, the median lethal dose (LD50) was 1460 mg/kg.
For the molecule `CCCCNC`, the LD50 is 420 mg/kg.
As to `CN(CCn1cnc2c1c(=O)n(C)c(=O)n2C)c1ccccc1`, the LD50 is 2880 mg/kg.
Turning to `CCOC(=O)C=C(C)C`, the median lethal dose (LD50) was 11600 mg/kg.
`C[N+](C)(N)CCCl`: the LD50 is 3400 mg/kg.
On to `CC(C)=C1C(=O)N(c2ccccc2)N(c2ccccc2)C1=O`, for which the median lethal dose (LD50) is 1280 mg/kg.
As to `CN1CCC(c2c[nH]c3ccccc23)C1` (stereo not drawn), the LD50 was 413 mg/kg.
In the case of `CCC(C(=O)O)c1ccc(CC(C)C)cc1` (stereo not drawn), the LD50 is 1600 mg/kg.
Turning to `CCCSP(=O)(OC)SCCC`, the LD50 was 6.8 mg/kg.
With `CC(C)N(CCC(C#N)(c1ccccc1)c1ccccn1)C(C)C` (stereo not drawn), the LD50 is 596 mg/kg.
Turning to `CC(C)COC(=O)CCCOc1ccc(Cl)cc1Cl`, the LD50 was 300 mg/kg.
As to `CC(C/N=C/c1ccccc1O)/N=C/c1ccccc1O` (stereo not drawn), the LD50 was 4560 mg/kg.
`CC(C)NC(=S)NC(C)C`: the LD50 is 450 mg/kg.
On to `OCCCO`, for which the 50% lethal dose (LD50) is 15000 mg/kg.
For `CCCOC(C1=NCCCN1)c1ccccc1` (stereo not drawn), the LD50 was 625 mg/kg.
As for `CN(C)CN(C)C`, the LD50 is 1770 mg/kg.
On to `CN1CCC(OC(c2ccccc2)c2ccccc2)CC1`, for which the LD50 was 698 mg/kg.
For `CO[C@]12C[C@@H](COC(=O)c3cncc(Br)c3)CN(C)[C@@H]1Cc1cn(C)c3cccc2c13`, the median lethal dose (LD50) was 1190 mg/kg.
As for `CN(c1nc2ccccc2s1)C1CCN(CCCCOc2ccc(F)cc2)CC1`, the LD50 was 154 mg/kg.
For `O=S(=O)(O)c1ccc2c(c1)-c1nc-2nc2[nH]c(nc3nc(nc4[nH]c(n1)c1ccccc41)-c1ccccc1-3)c1ccccc21`, the LD50 was 3600 mg/kg.
With `CP(=O)(Oc1ccc([N+](=O)[O-])cc1)c1ccccc1` (stereo not drawn), the LD50 is 12.5 mg/kg.
Take `CCCC(C)(COC(N)=O)COC(=O)NC(C)C` (stereo not drawn): the 50% lethal dose (LD50) is 1320 mg/kg.
Consider `c1ccc([Se]c2ccccc2)cc1`, for which the LD50 was 360 mg/kg.
